In assay [1] the test system is male C3H/HeN mice (telogen to anagen conversion). The format is in vivo. The note with it: mouse, in vivo. An excerpt:
While this model is a significant improvement over the telogen conversion assay as a model for human baldness, it suffers from a number of practical disadvantages. The macaques are expensive, relatively rare, labor intensive to maintain, and require long wash out periods between testing. […] Thus, the model relates to a modification of the existing telogen conversion assay. Male C3H/HeN mice approximately 7 weeks old are utilized. These animals are also uniformly in telogen, like their female counterparts. However, once shaven, the androgens inherently present in these male mice inhibit the conversion of the hair follicles to the anagen phase. An anti-androgen will block this androgenic effect and the follicles will convert to anagen, like their female counterparts.
The compounds shown below in Table IV were submitted for further testing utilizing the modified telogen conversion assay, described above. The testing was carried out in the following manner.
Male C3H/HeN mice, 6 to 7 weeks old (Charles River Laboratories, Raleigh, N.C.) were used for the study. Fur was clipped from the dorsal region of the mice prior to initiation of the study. Only mice with pink skin, a visual indication of the telogen phase, were selected for inclusion in the study.
A second group of animals received only the vehicle to serve as a control. Treatments were applied twice daily for 4 weeks.
The hair growth response was quantified by recording, for each animal, the day on which signs of hair growth first appeared over the treated area. The first sign of anagen was the darkening of skin color as melanocytes in the follicles started to synthesize melanin in preparation for the production of pigmented hairs. […] The day on which anagen was initiated in 50% of the test animals for both the treatment group and the vehicle group is reported below in Table IV.

The target in assay [2] is T1, hAR (human androgen receptor) (Homo sapiens, UniProt P10275).
T1 construct: made in house; host or cells: baculovirus/Sf9 insect cells (crude extract)
T1 sequence (P10275 1-920): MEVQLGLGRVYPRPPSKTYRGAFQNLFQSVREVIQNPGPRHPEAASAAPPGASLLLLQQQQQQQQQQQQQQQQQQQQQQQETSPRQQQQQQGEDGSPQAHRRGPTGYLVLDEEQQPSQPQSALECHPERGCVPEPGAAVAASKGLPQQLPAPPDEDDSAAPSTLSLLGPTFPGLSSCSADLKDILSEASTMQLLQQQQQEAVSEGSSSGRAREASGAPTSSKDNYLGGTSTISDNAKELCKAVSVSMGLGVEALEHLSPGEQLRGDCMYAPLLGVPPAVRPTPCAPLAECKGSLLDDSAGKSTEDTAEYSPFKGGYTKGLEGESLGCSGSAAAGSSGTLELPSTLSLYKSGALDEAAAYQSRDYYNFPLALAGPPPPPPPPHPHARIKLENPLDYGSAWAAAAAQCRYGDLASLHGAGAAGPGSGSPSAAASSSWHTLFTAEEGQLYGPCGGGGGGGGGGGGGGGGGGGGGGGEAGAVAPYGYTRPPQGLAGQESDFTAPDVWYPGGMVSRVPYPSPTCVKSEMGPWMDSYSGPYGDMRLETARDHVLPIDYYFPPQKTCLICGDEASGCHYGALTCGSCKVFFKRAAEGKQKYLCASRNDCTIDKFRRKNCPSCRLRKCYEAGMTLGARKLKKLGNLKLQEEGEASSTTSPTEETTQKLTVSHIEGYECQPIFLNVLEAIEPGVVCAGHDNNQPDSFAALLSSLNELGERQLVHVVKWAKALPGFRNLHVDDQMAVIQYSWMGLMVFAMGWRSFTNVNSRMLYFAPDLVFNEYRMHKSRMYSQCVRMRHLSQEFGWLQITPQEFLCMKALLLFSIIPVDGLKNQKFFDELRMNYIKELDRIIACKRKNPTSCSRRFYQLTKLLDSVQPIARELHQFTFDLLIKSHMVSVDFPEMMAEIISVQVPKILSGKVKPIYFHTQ
Put plainly: Competitive hAR binding assay with 3H-DHT tracer. The settings on record: baculovirus/Sf9 hAR extract, 1 nM 3H-DHT, one hour at 4° C; mean of multiple tests; read-out: AR Binding IC50.

The term IC50 denotes the concentration at which inhibition is half-maximal. On to `CSc1ccccc1Oc1ccc(C#N)cc1Cl` [Example 5, 3-Chloro-4-(2-methylsulfanyl-phenoxy)-benzonitrile], for which the “Anagen-Trx (day on which anagen was initiated in 50% of the test animals)” value in assay [1] is greater than 35 days. Also, the IC50 in assay [2] amounted to 311 nM.

The values are drawn from patent US20090105349A1, “ANDROGEN MODULATORS” (WARNER-LAMBERT COMPANY LLC, priority 2004, published 2009).
